Test results from patent US20160346249A1 (priority 2012, published 2016).
Like-named read-outs stand apart in the source and are kept apart here.

Key:
[1] = 12-month dog toxicity and toxicokinetic study; type: in vivo; conditions: for Cmax / Tmax / AUC(0-t): beagle, dog, plasma, po; for AUC(0-t): read-out: AUC0-24; for body weight lower than control: Week 52
Method: Blood samples were collected on Days 0, 91, 181, 268 and 358 from up to 4 animals/gender/group. Plasma samples collected on Days 91, 181, 268, as well as all plasma samples collected from the control group were not evaluated.
For toxicology assessment four dogs of each gender were included in each group. Assessments included clinical observations, body weight, and food consumption measures which were recorded periodically during the study. Ophthalmic examinations were performed during Weeks 1, 12, 25, 38, 51, and 55 (recovery period). Electrocardiograms were recorded during Weeks 2, 12, 25, 38, and 51. Clinical pathology evaluations (hematology, serum chemistry, and urinalysis) were performed during Weeks 1, 12, 25, 38, 52, and 56 (recovery period). At termination, complete necropsies were performed on all dogs and selected organs were weighed. Selected tissues from the control and 20 (15) mg/kg/day group animals and animals euthanized in extremis were examined microscopically. Sections of livers from dogs in the control and 20 (15) mg/kg/day groups were collected at both the primary and 4-week post-treatment recovery necropsies for assessment of drug metabolism enzyme (microsomal cytochrome P450) activity.

[2] = 26-week rat toxicity and toxicokinetic study; type: in vivo; conditions: for Tmax / AUC(0-t) / Cmax: po; for AUC(0-t): read-out: AUC0-24; for mean body weight lower than control: end of 4-week recovery; for mean cumulative body weight gain lower: end of treatment
Method: A portion of the animals from each group was maintained for an additional 4-week post-treatment recovery period.
For toxicology assessment, groups comprised thirty animals of each gender. Assessments included clinical observations, body weight, and food consumption measures noted periodically during the study. […] Ophthalmic examinations were performed during Weeks 1 and 13. […] In addition, the liver, vagina, and ovaries were identified as potential target tissues and were examined microscopically for all animals from all groups at the primary and recovery necropsies. […] 10 animals of each gender from each group were held to week 30 for a 4-week post-treatment recovery period.
For the toxicokinetic studies, there were ten animals of each gender in each group.

[3] = Rat pulmonary function study; type: in vivo; conditions: for animals with test article-related clinical observations: 6 hours post-dosing
Method: There were eight male rats per group. Clinical examinations were performed daily, and detailed physical examinations were performed prior to dosing and again following pulmonary functional assessments. Four replicates of 2 animals from each treatment group were evaluated over a 2-week period. Following dose administration, the rats were placed in a head-out neck-sealed plethysmograph for measurement of pulmonary function parameters (respiratory rate, tidal volume, and calculated minute volume). Pulmonary function data were collected for at least 60 minutes prior to dosing (Day −1) and for at least 6 hours post-dosing on Day 0.

[4] = mouse, in vivo; for AUC0-24: po
[5] = female, 2 mg/kg/day, females, 2 mg/kg/day, Day 0
[6] = female, 2 mg/kg/day, females, 2 mg/kg/day, Day 358
[7] = female, 6 mg/kg/day, females, 6 mg/kg/day, Day 0
[8] = female, 6 mg/kg/day, females, 6 mg/kg/day, Day 358
[9] = female, 15 mg/kg/day, females, 20 (15) mg/kg/day, Day 358
[10] = female, 20 mg/kg/day, females, 20 (15) mg/kg/day, Day 0
[11] = male, 2 mg/kg/day, males, 2 mg/kg/day, Day 0
[12] = male, 2 mg/kg/day, males, 2 mg/kg/day, Day 358
[13] = male, 6 mg/kg/day, males, 6 mg/kg/day, Day 0
[14] = male, 6 mg/kg/day, males, 6 mg/kg/day, Day 358
[15] = male, 15 mg/kg/day, males, 20 (15) mg/kg/day, Day 358
[16] = male, 20 mg/kg/day, males, 20 (15) mg/kg/day, Day 0
[17] = female, Crl:CD(SD)IGS BR, rat, in vivo, 8 mg/kg/day, females, 8 mg/kg/day, Day 0
[18] = female, Crl:CD(SD)IGS BR, rat, in vivo, 25 mg/kg/day, females, 25 mg/kg/day, Day 0
[19] = female, Crl:CD(SD)IGS BR, rat, in vivo, 25 mg/kg/day, females, 25 mg/kg/day, Day 177
[20] = male, Crl:CD(SD)IGS BR, rat, in vivo, 8 mg/kg/day, males, 8 mg/kg/day, Day 0
[21] = male, Crl:CD(SD)IGS BR, rat, in vivo, 8 mg/kg/day, males, 8 mg/kg/day, Day 177
[22] = male, Crl:CD(SD)IGS BR, rat, in vivo, 25 mg/kg/day, males, 25 mg/kg/day, Day 0
[23] = male, Crl:CD(SD)IGS BR, rat, in vivo, 25 mg/kg/day, males, 25 mg/kg/day, Day 177

In the case of Clc1ccc([C@]23CNC[C@H]2C3)cc1Cl [amitifadine, (+)-1-(3,4-dichlorophenyl)-3-azabicyclo[3.1.0]hexane], the Cmax [1, 5] is reported as 615 ng/mL, the Tmax [1, 5] is reported as 1 h and the AUC(0-t) [1, 5] is reported as 1580 ng·h/mL. It also gave a Cmax [1, 6] of 1150 ng/mL, a Tmax [1, 6] of 1 h and an AUC(0-t) [1, 6] of 3990 ng·h/mL. The Cmax [1, 7] was 3680 ng/mL, the Tmax [1, 7] was 1.3 h and the AUC(0-t) [1, 7] was 10800 ng·h/mL. For the same molecule, the Cmax [1, 8] was 2420 ng/mL, the Tmax [1, 8] was 1 h and the AUC(0-t) [1, 8] was 11100 ng·h/mL. The Cmax [1, 9] was 5800 ng/mL, the Tmax [1, 9] was 1.2 h and the AUC(0-t) [1, 9] was 19600 ng·h/mL. It also gave a Cmax [1, 10] of 6880 ng/mL, a Tmax [1, 10] of 1 h and an AUC(0-t) [1, 10] of 24100 ng·h/mL. For the same molecule, the “body weight lower than control” value ([1]; females, 6 mg/kg/day) was 12%, the “body weight lower than control” value ([1]; females, 20 (15) mg/kg/day) was 14% and the Cmax [1, 11] was 1040 ng/mL. For the same molecule, the Tmax [1, 11] was 1.3 h, the AUC(0-t) [1, 11] was 2130 ng·h/mL and the Cmax [1, 12] was 844 ng/mL. The Tmax [1, 12] was 1 h, the AUC(0-t) [1, 12] was 2220 ng·h/mL and the Cmax [1, 13] was 3250 ng/mL. It also gave a Tmax [1, 13] of 1.3 h, an AUC(0-t) [1, 13] of 10500 ng·h/mL and a Cmax [1, 14] of 2780 ng/mL. The Tmax [1, 14] was 1.3 h, the AUC(0-t) [1, 14] was 15800 ng·h/mL and the Cmax [1, 15] was 4830 ng/mL. It also gave a Tmax [1, 15] of 1.2 h, an AUC(0-t) [1, 15] of 18100 ng·h/mL and a Cmax [1, 16] of 7980 ng/mL. The Tmax [1, 16] was 1 h, the AUC(0-t) [1, 16] was 29600 ng·h/mL and the “body weight lower than control” value ([1]; males, 6 mg/kg/day) was 5%. The “body weight lower than control” value ([1]; males, 20 (15) mg/kg/day) was 15%, the NOAEL at 26 weeks ([2]; both sexes, Crl:CD(SD)IGS BR, rat, in vivo, oral gavage, 26 weeks) was 8 mg/kg/day and the “exposure in female vs male rats” value ([2]; equivalent dosages) was at most 2 fold. For the same molecule, the “liver metabolic enzyme induction” value ([2]; female rats, 25 mg/kg/day, 26 weeks) was “inducer of CYP1A, CYP2B, CYP2E, CYP3A, and CYP4A”, the Tmax [2, 17] was 1 h and the AUC(0-t) [2, 17] was 9970 ng·h/mL. The Tmax ([2]; female, Crl:CD(SD)IGS BR, rat, in vivo, 8 mg/kg/day, females, 8 mg/kg/day, Day 177) was 2 h, the Cmax [2, 18] was 2630 ng/mL and the Tmax [2, 18] was 1 h. The AUC(0-t) [2, 18] was 23800 ng·h/mL, the Cmax [2, 19] was 3500 ng/mL and the Tmax [2, 19] was 1 h. The AUC(0-t) [2, 19] was 29700 ng·h/mL, the Tmax ([2]; female, Crl:CD(SD)IGS BR, rat, in vivo, […], females, […], Day 0) was 2 h and the Tmax ([2]; female, Crl:CD(SD)IGS BR, rat, in vivo, […], females, […], Day 177) was 1 h. For the same molecule, the AUC(0-t) ([2]; female, Crl:CD(SD)IGS BR, rat, plasma, 8 mg/kg/day, females, 8 mg/kg/day, Day 177) was 11100 ng·h/mL, the “mean ovary/oviduct weights higher” value ([2]; females, 25 mg/kg/day) was 12% and the “mean body weight lower than control” value ([2]; females, 25 mg/kg/day) was 10%. For the same molecule, the “mean cumulative body weight gain lower” value ([2]; females, 25 mg/kg/day) was 14%, the “liver metabolic enzyme induction” value ([2]; male rats, 25 mg/kg/day, 26 weeks) was “inducer of CYP1A, CYP2B, and CYP2E” and the Tmax [2, 20] was 1 h. The AUC(0-t) [2, 20] was 5380 ng·h/mL, the Cmax [2, 21] was 954 ng/mL and the Tmax [2, 21] was 1 h. For the same molecule, the Cmax [2, 22] was 2600 ng/mL, the Tmax [2, 22] was 1 h and the AUC(0-t) [2, 22] was 18100 ng·h/mL. The Cmax [2, 23] was 2600 ng/mL, the AUC(0-t) [2, 23] was 17800 ng·h/mL and the Tmax ([2]; male, Crl:CD(SD)IGS BR, rat, in vivo, […], males, […], Day 0) was 1 h. The Tmax ([2]; male, Crl:CD(SD)IGS BR, rat, in vivo, […], males, […], Day 177) was 1 h, the AUC(0-t) ([2]; male, Crl:CD(SD)IGS BR, rat, plasma, 8 mg/kg/day, males, 8 mg/kg/day, Day 177) was 7130 ng·h/mL and the “mean testes weights higher” value ([2]; males, 25 mg/kg/day) was 9.5%. For the same molecule, the “mean body weight lower than control” value ([2]; males, 25 mg/kg/day) was 12%, the “mean cumulative body weight gain lower” value ([2]; males, 25 mg/kg/day) was 18% and the NOEL ([2]; oral gavage, 26 weeks) was 2.5 mg/kg/day. For the same molecule, the “animals with test article-related clinical observations” value ([3]; 30 mg/kg) was “⅜”, the increased respiratory frequency ([3]; 100 mg/kg, 16 to 30 minutes post-dosing) was 23% and the “animals with test article-related clinical observations” value ([3]; 100 mg/kg) was 6/8. It also gave an elevated respiratory frequency ([3]; 100 mg/kg, later post-treatment intervals) of at least 33%, an NOAEL ([3]; male, Crl:CD(SD)IGS BR, rat, in vivo, single oral gavage) of 30 mg/kg and an AUC0-24 ([4]; female, Crl:CD-1(ICR) BR, 10 mg/kg/day) of 2086 ng·h/mL. For the same molecule, the AUC0-24 ([4]; female, Crl:CD-1(ICR) BR, 30 mg/kg/day) was 6474 ng·h/mL, the AUC0-24 ([4]; female, Crl:CD-1(ICR) BR, 100 mg/kg/day) was 26436 ng·h/mL and the “twitching (animals affected)” value ([4]; male, Crl:CD-1(ICR) BR, 150 mg/kg/day, 0 study day) was 3/10. For the same molecule, the AUC0-24 ([4]; male, Crl:CD-1(ICR) BR, 10 mg/kg/day) was 1907 ng·h/mL, the AUC0-24 ([4]; male, Crl:CD-1(ICR) BR, 30 mg/kg/day) was 7250 ng·h/mL and the AUC0-24 ([4]; male, Crl:CD-1(ICR) BR, 100 mg/kg/day) was 40306 ng·h/mL. For the same molecule, the AUC0-24 ([4]; male, Crl:CD-1(ICR) BR, 150 mg/kg/day) was 40248 ng·h/mL, the “absolute liver weight higher” value ([4]; 150 mg/kg/day) was 22% and the “absolute lymphocyte counts lower” value ([4]; 150 mg/kg/day) was 54%. For the same molecule, the “percent neutrophil counts higher” value ([4]; 150 mg/kg/day) was 183% and the “percentage lymphocyte counts lower” value ([4]; 150 mg/kg/day) was 31%.
